The METLIN SMRT retention time set (Domingo-Almenara et al. 2019)

Experiment: gradient 5% acetonitrile 3 min, to 50% in 2 min, to 85% in 15 min, held 3 min, 100 µL/min
Conditions: column: Zorbax Extend-C18 2.1 x 50 mm; eluents: water / acetonitrile, 0.1% formic acid
Outline: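 Retention times of pure standards were taken from adduct peaks that were selected by computer and manually inspected. Over 3 months, mixtures of ~100 molecules were run by HPLC–quadrupole time-of-flight mass spectrometry in positive and negative ionization mode. The Zorbax Extend-C18 column (2.1 × 50 mm, 1.8 μm) ran at 100 μL/min in water and acetonitrile, each containing 0.1% formic acid, with 40 μL dead volume and 900 μL dwell volume.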

| Compound | RP-LC retention time |
| --- | --- |
| Cc1ccc(NC(=O)N2CCCC(CCC(=O)NCCC3=CCCCC3)C2)cc1 (stereo unspecified) | 947 s |
| COc1ccc(OCC(=O)Nc2nc(C)cc(C)c2-c2noc(C)n2)cc1 | 783 s |
| CCOC(=O)c1ccc(NC(=O)Cn2c(C)cc(=O)c3cc(Br)ccc32)cc1 | 623 s |
| Cc1cc(C2CCCN2C(=O)Nc2ccc(C)c(C)c2)no1 (stereo unspecified) | 857 s |
| CCCNC(=O)c1ccc2c(c1)CCCN2S(C)(=O)=O | 713 s |
| CCCC1c2nccn2CCCN1C(=O)c1ocnc1C (stereo unspecified) | 558 s |
| CCCCN(C)c1ccc(NC(=O)c2cccs2)cc1C(=O)O | 623 s |
| COc1cccc(NC(=O)Cn2nc3n(c2=O)CCCCC3)c1 | 668 s |
| CCN(CC)S(=O)(=O)c1cc(-c2nnc(-c3ccccc3)o2)ccc1OC | 977 s |
| CNC(=O)[C@@H]1CN(S(=O)(=O)C(C)C)C[C@H]1c1n[nH]c(C)n1 | 570 s |
| COC(=O)c1ccc(C(=O)Nc2nnc(-c3cccs3)o2)cc1 | 710 s |
| CCOC(=O)Cc1csc(NC(=O)CN2CC(c3nc(C4CC4)no3)C2)n1 | 575 s |
| c1ccc2c(OCc3nc4c5ccccc5ncn4n3)cccc2c1 | 1040 s |
| COCCc1noc(COC2CCN(C(=O)C3CCCO3)CC2)n1 (stereo unspecified) | 618 s |
| Cc1ccc(NC(=O)Cn2cnc(C)c(C)c2=O)cc1F | 630 s |
| CCCn1cnnc1C1CCCCN1C(=O)CCc1c(C)nn(C)c1C (stereo unspecified) | 589 s |
| COc1ccc(NC(=O)C2CCN(S(=O)(=O)c3cc4c(cc3C)NC(=O)CO4)CC2)cc1OC | 712 s |
| Cc1nnc(C2CCCCCN2C(=O)Cc2c(C)noc2C)o1 (stereo unspecified) | 658 s |
| CC(C)C(=O)Nc1cnc(-c2cccc(Cl)c2)nc1 | 975 s |
| CCOc1ccc(-n2ccn3cc(-c4cccc(Cl)c4)nc3c2=O)cc1 | 947 s |
| Cc1csc(-c2cc(S(=O)(=O)NCc3ccccc3Cl)c(C)s2)n1 | 1050 s |

| Compound | RP-LC retention time |
| --- | --- |
| CCn1cc(CCNC(=O)Cc2ccccc2C)c2cccnc21 | 721 s |
| COC(=O)c1ccc(NC(=O)c2[nH]c3cc(C)sc3c2CN(C)C)cc1 | 670 s |
| O=C(CNc1ccccc1)Nc1nc(-c2ccccc2)cs1 | 637 s |
| Cc1sc(NC(=O)c2ccccc2C(=O)O)nc1-c1ccccc1 | 855 s |
| COc1cccc(Cn2cc(C(=O)c3cc(C)ccc3C)c(=O)c3ccc(C)nc32)c1 | 1060 s |
| COCCN1C(=O)c2cccn2CC1CNC(=O)c1ccnn1C (stereo unspecified) | 626 s |
| CC(C)NC(=O)c1ccc2c(c1)ncn2CCNC(=O)Nc1ccc(Br)cc1F | 651 s |
| CCOC(=O)c1cc(S(=O)(=O)N2CCCC2C(=O)Nc2ccccc2)cn1C (stereo unspecified) | 903 s |
| CCN(CC)C(=O)Cn1nc2ncccn2c1=O | 532 s |
| O=C(COc1ccc(Cl)cc1)N1CCc2nc[nH]c2C1 | 606 s |
| COc1cc(-c2ccc(F)cc2)nc2ccc(NS(=O)(=O)c3ccc(C#N)cc3)cc12 | 784 s |
| O=C(NCCOc1ccc(F)cc1)c1ccc2nsnc2c1 | 786 s |
| COc1ccc(-n2ccnc(NC(=O)Nc3ccc(C)c(C)c3)c2=O)cc1OC | 955 s |
| COCCNC(=O)CS(=O)Cc1cnn(-c2ccccc2)c1-n1cccc1 (stereo unspecified) | 678 s |
| CCn1cc(S(=O)(=O)N[C@@H]2CN(Cc3ccccn3)C[C@H]2CN(C)C)cn1 | 524 s |
| CC(=O)COc1cc(O)c2c(=O)cc(-c3ccccc3)oc2c1 | 938 s |
| CC1(C(=O)NCc2ccc(F)cc2)CN(S(C)(=O)=O)CC(=O)N1Cc1ccc(Cl)cc1 (stereo unspecified) | 866 s |
| CCOc1ccccc1C(=O)Nc1cccn2cnnc12 | 772 s |
| COc1ccc(Cl)cc1S(=O)(=O)N1CCCC(C(=O)NCc2ccncc2)C1 (stereo unspecified) | 622 s |
| O=C(Cc1ccc(Cl)cc1)NCCOc1ccccc1 | 844 s |
| COCCCNC(=O)c1nc2cccnc2n(CC(C)C)c1=O | 728 s |

Next, values leading:

| RP-LC retention time | Compound |
| --- | --- |
| 610 s | COc1cccc(N2CCN(Cc3nc4nc(C)cc(N(C)C)n4n3)CC2)c1 |
| 669 s | O=C(NCCn1nc(-n2cccn2)ccc1=O)c1cc2ccccc2o1 |
| 1190 s | CCN1C(=O)c2ccccc2Oc2ccc(C(=O)N3CCN(c4cc(C)ccc4C)CC3)cc21 |
| 822 s | Cc1nn(CC(=O)NC2CCCCCC2)c(=O)c2nn(-c3ccccc3)c(C)c12 |
| 585 s | c1cncc(-c2noc(COC3CCCN(C4CCCC4)C3)n2)c1 (stereo unspecified) |
| 646 s | Cn1nc(C(=O)N2CCCC(C(=O)NC3CC3)C2)c2c1CCN(C(=O)c1cccc(F)c1)C2 (stereo unspecified) |
| 1040 s | Cc1c(-c2nn3c(Cc4ccccc4)nnc3s2)nnn1-c1ccc(Cl)cc1 |
| 586 s | COc1ccc(N2CCN(C(=O)c3ccc(=O)n(CCN4CCCC4)c3)CC2)cc1 |
| 666 s | COc1ccccc1N1CCN(c2ccnc(SCC(=O)Nc3ccccc3C)n2)CC1 |
| 860 s | Cn1cccc1C(=O)NCc1cnoc1-c1ccc(F)cc1 |
| 640 s | Cc1cc(OCC(=O)NCc2ccccc2Br)nc(N2CCCC2)n1 |
| 924 s | CCn1ccc(C(=O)N2c3ccccc3CC2c2nc(C3CC3)no2)n1 (stereo unspecified) |
| 608 s | Cc1ccc(C)c(NC(=O)N2CCN(CCn3c(-c4ccncc4)nc4cccnc43)CC2)c1 |
| 635 s | CCn1c(N2CCCC(C(=O)NCC3CCN(Cc4cccc(F)c4)CC3)C2)cc(=O)n(C)c1=O (stereo unspecified) |
| 703 s | O=C(CCSc1ccccc1)N1CCN(c2ccc3nnc(-c4ccco4)n3n2)CC1 |
| 979 s | O=c1n(Cc2ccccc2Cl)nc2ccc(S(=O)(=O)N3CCCCC3)cn12 |
| 745 s | Cc1nc(OCC(=O)Nc2ccccc2Br)c2ccccc2n1 |
| 655 s | Cc1ccccc1Cc1c(C)nc2nc(SCC(=O)NCCN3CCOCC3)nn2c1C |
| 969 s | CN(C(=O)c1ccc(-c2cnc(N3CCCC3)nc2)cc1)C1CCCCC1 |
| 766 s | O=C(CCc1c[nH]c2ccccc12)N1CCN2CCS(=O)(=O)N(C3CC3)C(=O)C2C1 (stereo unspecified) |
| 804 s | COc1cccc(N2CCN(c3ccnc(SCC(=O)NCCCc4ccccc4)n3)CC2)c1 |
| 713 s | CCc1nnc(-c2ccc(=O)n(CC(=O)NCc3ccc(F)c(Cl)c3)c2)o1 |
| 719 s | CC(C)NC(=O)C1CCCN(c2nc3ncn(CC(=O)Nc4ccc(Cl)cc4)c(=O)c3s2)C1 (stereo unspecified) |
| 1380 s | Cc1ccccc1-c1nc(C2CCN(S(=O)(=O)c3ccc4c(c3)CCCC4)CC2)no1 |
| 775 s | O=S(=O)(c1ccc2c(c1)CCC2)N1CCCC(Cn2c(C3CC3)nc3cccnc32)C1 (stereo unspecified) |

| RP-LC retention time | Compound |
| --- | --- |
| 930 s | COc1ccc(-c2nnc(COc3ccc(NC(=O)c4ccccn4)cc3)o2)cc1 |
| 654 s | CCOCCCNC(=O)C1CCN(c2nc3cccnc3s2)CC1 |
| 1330 s | Cc1ccc(-c2nc(-c3cccc(-c4ccnn4C)c3)no2)c(C)c1 |
| 889 s | Cc1cc(C(=O)N2CCCC2c2ccccc2Cl)on1 (stereo unspecified) |
| 1070 s | COc1ccc(-c2nc(-c3ccc4c(c3)oc(=O)n4C(C)C)no2)cc1OC |
| 1220 s | O=c1cc(-c2ccncc2)nc(N2CCCC2)n1Cc1ccccc1F |
| 635 s | CCOc1ccc(CNC(=O)C2CCN(c3cncnc3N3CCOCC3)CC2)cc1 |
| 1100 s | COc1ccc(NC(=O)Cn2nc(N3CCCC(C)C3)c3ccccc3c2=O)c(OC)c1 (stereo unspecified) |
| 644 s | O=C(c1ccco1)N1CCC(n2c(-c3ccsc3)nc3cccnc32)C1 (stereo unspecified) |
| 861 s | COc1ccccc1-n1ccn(Cc2nc(-c3cccc(F)c3)no2)c(=O)c1=O |
| 724 s | COc1ccc(N2CC(C(=O)NCc3ccccc3OC)CC2=O)cc1 (stereo unspecified) |
| 1090 s | CC1CCN(c2ccc(-c3noc(CN4CCN(c5ccccc5F)CC4)n3)cn2)CC1 |
| 1100 s | O=C(NCc1csc(-c2ccccc2)n1)C1CCN(S(=O)(=O)c2ccc3c(c2)CCCC3)CC1 |
| 607 s | CCN1CCN(C(=O)c2ccc(-c3ccc4c(c3)CCN4C(C)=O)cc2)CC1 |
| 834 s | COc1ccc(-c2noc(C3CCCN3C(=O)c3ccsc3)n2)cc1OC (stereo unspecified) |
| 937 s | CCCc1nc(-c2c(C)cc(C)nc2NC(=O)c2ccc(F)cc2Cl)no1 |
| 702 s | COc1ccc(NC(=O)C2CCCN(c3nnc4ccccn34)C2)cc1Cl (stereo unspecified) |
| 747 s | CCN1CCN(c2ccc(NC(=O)c3cc(Cl)ccc3F)cn2)C1=O |
| 629 s | Fc1ccccc1-c1nc(-c2ccc3c(c2)ncn3CCN2CCCC2)no1 |
| 707 s | COc1cccc(C(=O)CC2(O)C(=O)Nc3ccc(F)cc32)c1 (stereo unspecified) |
| 769 s | COC(=O)c1cccc(NC(=O)NC2CCN(c3ccccc3)C2=O)c1 (stereo unspecified) |
| 723 s | CCOc1ccc(CNC(=O)C2CCN(Cc3cn(CC)c4ccc(OC)cc34)CC2)cc1 |
| 659 s | O=C(c1cc(-c2ccccn2)n[nH]1)N1CCN(C(=O)C2CCCCC2)CC1 |
| 630 s | CCOc1ccc(NC(=O)N2CCC(n3cnnc3C3CC3)C2)cc1 (stereo unspecified) |
